Measured values taken from US10166218B2, “3-(1H-indol-2-yl)-1H-pyrazolo[3,4-C]pyridines and therapeutic uses thereof” (Samumed, LLC, priority 2015, dated 2019).

Columns and labels:
[1] = test system: primary human mesenchymal stem cells (hMSCs); experiment: Induction of chondrogenesis in primary human mesenchymal stem cells (chondrogenic nodules); type: cell-based; conditions: 144 h, 6 days; for EC50: concentration required to induce 50% levels of chondrogenesis of TGF-β3 positive control, read-out: Conc (nM) of 50% TGF-β3 activity; for Emax: nodules, relative to TGF-β3 (10 ng/mL) positive control, read-out: Max. Activity as % TGF-β3 activity
Protocol: Representative compounds were screened using primary human mesenchymal stem cells (hMSCs) to determine their ability to induce chondrogenesis (process by which cartilage is developed).
Primary human mesenchymal stem cells (hMSCs) were purchased from Lonza (Walkersville, Md.) and expanded in Mesenchymal Stem Cell Growth Media (Lonza). Cells between passage 3 and 6 were used for the experiments.
Each compound was dissolved in DMSO as a 10 mM stock and used to prepare compound source plates. Serial dilution (1:3, 6-point dose-response curves from 2700 nM to 10 nM) and compound transfer was performed using the ECHO 550 (Labcyte, Sunnyvale, Calif.) into 96-well clear bottom assay plates (Greiner Bio-One) with appropriate DMSO backfill for a final DMSO concentration of 0.03%. hMSCs were plated at 20,000 cells/well in 250 μL/well Incomplete Chondrogenic Induction Medium (Lonza; DMEM, dexamethasone, ascorbate, insulin-transferrin-selenium [ITS supplement], gentamycin-amphotericin [GA-1000], sodium pyruvate, proline and L-glutamine). TGF-β3 (10 ng/mL) was used as a positive control for differentiation while negative control wells were treated with 75 nL DMSO for normalization and calculating EC50 values. Cells were incubated at 37° C. and 5% CO2 for 6 days. To image chondrogenic nodules, the cells were fixed using 4% formaldehyde (Electron Microscopy Sciences), and stained with 2 μg/mL Rhodamine B (Sigma-Aldrich) and 20 μM Nile Red (Sigma-Aldrich) [Johnson K., et. al, A Stem Cell-Based Approach to Cartilage Repair, Science, (2012), 336(6082), 717-721]. The nodules imaged (4 images per well at 4× magnification) by excitation at 531 nm and emission at 625 nm and quantified using the CellInsight CX5 (Thermo Scientific). Number of nodules in each well was normalized to the average of 3 DMSO treated wells on the same plate using Excel (Microsoft Inc.). The normalized averages (fold change over DMSO) of 3 replicate wells for each compound concentration were calculated. Due to solubility limitations of some of the compounds, curve fitting was incomplete leading to inaccurate EC50 determinations.
Using TGF-β3 as a positive control, the concentration of representative compounds required to induce 50% levels of chondrogenesis is reported. In addition, the maximum activity of each compound and the respective dose that each compound reached maximum chondrogenesis activity is reported.

[2] = test system: Wnt activity (Sp5-Luc reporter, TCF/LEF binding sites) in SW480 colon carcinoma cells; experiment: Screening assay for Wnt activity: Sp5-Luc reporter gene assay in stably transduced SW480 cells; type: cell-based; conditions: Homo sapiens; for EC50: overnight incubation
Method in brief: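 Luminescence (BrightGlo) was normalised to DMSO-only wells and fitted with a four-parameter variable-slope model for EC50; beyond 10 μM, % inhibition at 10 μM is given. Stable Sp5-Luc SW480 reporter cells, 4,000/well in 1% FBS, were exposed overnight at 37 °C to compounds, top 10 μM, 1:3 dilutions, 0.1% DMSO.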

SMILES	EC50 [1] [nM]	Emax [1] [%]	EC50 [2] [nM]	inhibition at 10 µM ([2]; 10 μM, read-out: percent inhibition at 10 μM (given for EC50 of >10 μM)) [%]
Nc1cncc(-c2cc3c(-c4cc5c(-c6ccccc6F)cccc5[nH]4)n[nH]c3cn2)c1 [Compound 59, 5-(3-(4-(2-Fluorophenyl)-1H-indol-2-yl)-1H-pyrazolo[3,4-c]pyridin-5-yl) pyridin-3-amine]	30	94	296	
CC(C)C(=O)Nc1cncc(-c2cc3c(-c4cc5c(N6CCN(C)CC6)cccc5[nH]4)n[nH]c3cn2)c1 [Compound 233]		36	700	
CCC(=O)Nc1cncc(-c2cc3c(-c4cc5c(-c6cccnc6)cccc5[nH]4)n[nH]c3cn2)c1 [Compound 85, N-(5-(3-(4-(Pyridin-3-yl)-1H-indol-2-yl)-1H-pyrazolo[3,4-c]pyridin-5-yl)pyridin-3-yl)propionamide]		101	305	
CN(C)CCNc1cc(F)cc(-c2cccc3[nH]c(-c4n[nH]c5cnc(-c6ccccn6)cc45)cc23)c1 [Compound 476, N^1-(3-Fluoro-5-(2-(5-(pyridin-2-yl)-1H-pyrazolo[3,4-c]pyridin-3-yl)-1H-indol-4-yl)phenyl)-N^2,N^2-dimethylethane-1,2-diamine]	10	89	3750	
CN(C)CCNc1cc(F)cc(-c2cccc3[nH]c(-c4n[nH]c5cnc(-c6cncc(CN(C)C)c6)cc45)cc23)c1 [Compound 461, N^1-(3-(2-(5-(5-((Dimethylamino)methyl)pyridin-3-yl)-1H-pyrazolo[3,4-c]pyridin-3-yl)-1H-indol-4-yl)-5-fluorophenyl)-N^2,N^2-dimethylethane-1,2-diamine]		52	1310	
Fc1ccccc1-c1cccc2[nH]c(-c3n[nH]c4cnc(-c5cncc(CN6CCCCC6)c5)cc34)cc12 [Compound 71, 3-(4-(2-Fluorophenyl)-1H-indol-2-yl)-5-(5-(piperidin-1-ylmethyl)pyridin-3-yl)-1H-pyrazolo[3,4-c]pyridine]		18	2090	
CN(C)CCNc1cc(F)cc(-c2cccc3[nH]c(-c4n[nH]c5cnc(-c6cncc(O)c6)cc45)cc23)c1 [Compound 817, 5-(3-(4-(3-((2-(Dimethylamino)ethyl)amino)-5-fluorophenyl)-1H-indol-2-yl)-1H-pyrazolo[3,4-c]pyridin-5-yl)pyridin-3-ol]	10	66	407	
Cc1ccncc1-c1cc2c(-c3cc4c(-c5cc(F)cc(CNS(C)(=O)=O)c5)cccc4[nH]3)n[nH]c2cn1 [Compound 481, N-(3-Fluoro-5-(2-(5-(4-methylpyridin-3-yl)-1H-pyrazolo[3,4-c]pyridin-3-yl)-1H-indol-4-yl)benzyl)methanesulfonamide]	900	152	195	
CN(C)Cc1cncc(-c2cc3c(-c4cc5c(-c6ccccn6)cccc5[nH]4)n[nH]c3cn2)c1 [Compound 153, N,N-Dimethyl-1-(5-(3-(4-(pyridin-2-yl)-1H-indol-2-yl)-1H-pyrazolo[3,4-c]pyridin-5-yl)pyridin-3-yl)methanamine]	30	75	711	
c1ccc2[nH]c(-c3n[nH]c4cnc(-c5cncc(CN6CCCC6)c5)cc34)cc2c1 [Compound 266, 3-(1H-Indol-2-yl)-5-(5-(pyrrolidin-1-ylmethyl)pyridin-3-yl)-1H-pyrazolo [3,4-c]pyridine]		138	390	
Fc1ccc(-c2cccc3[nH]c(-c4n[nH]c5cnc(-c6cncc(CN7CCCC7)c6)cc45)cc23)cc1 [Compound 42, 3-(4-(4-Fluorophenyl)-1H-indol-2-yl)-5-(5-(pyrrolidin-1-ylmethyl)pyridin-3-yl)-1H-pyrazolo[3,4-c]pyridine]	300	164	1840	
Nc1cncc(-c2cc3c(-c4cc5c(-c6ccccn6)cccc5[nH]4)n[nH]c3cn2)c1 [Compound 143, 5-(3-(4-(Pyridin-2-yl)-1H-indol-2-yl)-1H-pyrazolo[3,4-c]pyridin-5-yl) pyridin-3-amine]	300	118	255	
O=C(CC1CCNCC1)Nc1cncc(-c2cc3c(-c4cc5c(-c6ccccn6)cccc5[nH]4)n[nH]c3cn2)c1 [Compound 621, 2-(Piperidin-4-yl)-N-(5-(3-(4-(pyridin-2-yl)-1H-indol-2-yl)-1H-pyrazolo[3,4-c]pyridin-5-yl)pyridin-3-yl)acetamide]		57	> 10000	46.2
O=C(Nc1cncc(-c2cc3c(-c4cc5ccccc5[nH]4)n[nH]c3cn2)c1)c1ccccc1 [Compound 263, N-(5-(3-(1H-Indol-2-yl)-1H-pyrazolo[3,4-c]pyridin-5-yl)pyridin-3-yl) benzamide]		122	199	
O=C(Nc1cncc(-c2cc3c(-c4cc5c(-c6cccnc6)cccc5[nH]4)n[nH]c3cn2)c1)c1ccccc1 [Compound 95, N-(5-(3-(4-(Pyridin-3-yl)-1H-indol-2-yl)-1H-pyrazolo[3,4-c]pyridin-5-yl)pyridin-3-yl)benzamide]	100	236	400	
CN(C)CCOc1cncc(-c2cc3c(-c4cc5c(-c6cccnc6)cccc5[nH]4)n[nH]c3cn2)c1 [Compound 591, N,N-Dimethyl-2-((5-(3-(4-(pyridin-3-yl)-1H-indol-2-yl)-1H-pyrazolo[3,4-c]pyridin-5-yl)pyridin-3-yl)oxy)ethan-1-amine]		36	2740	
c1cncc(-c2cc3c(-c4cc5c(-c6cccnc6)cccc5[nH]4)n[nH]c3cn2)c1 [Compound 88, 5-(Pyridin-3-yl)-3-(4-(pyridin-3-yl)-1H-indol-2-yl)-1H-pyrazolo[3,4-c]pyridine]	30	141	260	
O=C(Nc1cncc(-c2cc3c(-c4cc5c(-c6cccnc6)cccc5[nH]4)n[nH]c3cn2)c1)C1CC1 [Compound 104, N-(5-(3-(4-(Pyridin-3-yl)-1H-indol-2-yl)-1H-pyrazolo[3,4-c]pyridin-5-yl)pyridin-3-yl)cyclopropanecarboxamide]	100	308	336	
Cc1ccncc1-c1cc2c(-c3cc4c(-c5ccccn5)cccc4[nH]3)n[nH]c2cn1 [Compound 145, 5-(4-Methylpyridin-3-yl)-3-(4-(pyridin-2-yl)-1H-indol-2-yl)-1H-pyrazolo [3,4-c]pyridine]	30	90	567	
CS(=O)(=O)NCc1cc(F)cc(-c2cccc3[nH]c(-c4n[nH]c5cnc(-c6cncnc6)cc45)cc23)c1 [Compound 503, N-(3-Fluoro-5-(2-(5-(pyrimidin-5-yl)-1H-pyrazolo[3,4-c]pyridin-3-yl)-1H-indol-4-yl)benzyl)methanesulfonamide]	900	102	560	
CCNCc1cncc(-c2cc3c(-c4cc5c(-c6ccc(F)cc6)cccc5[nH]4)n[nH]c3cn2)c1 [Compound 34, N-((5-(3-(4-(4-Fluorophenyl)-1H-indol-2-yl)-1H-pyrazolo[3,4-c]pyridin-5-yl)pyridin-3-yl)methyl)ethanamine]	900	268	382	
CCCCC(=O)Nc1cncc(-c2cc3c(-c4cc5c(-c6ccccn6)cccc5[nH]4)n[nH]c3cn2)c1 [Compound 159, N-(5-(3-(4-(Pyridin-2-yl)-1H-indol-2-yl)-1H-pyrazolo[3,4-c]pyridin-5-yl)pyridin-3-yl)pentanamide]	900	84	3480	
c1cncc(-c2cccc3[nH]c(-c4n[nH]c5cnc(-c6cncc(CN7CCCC7)c6)cc45)cc23)c1 [Compound 98, 3-(4-(Pyridin-3-yl)-1H-indol-2-yl)-5-(5-(pyrrolidin-1-ylmethyl)pyridin-3-yl)-1H-pyrazolo[3,4-c]pyridine]		22	1200	
c1cc(-c2ccoc2)c2cc(-c3n[nH]c4cnc(-c5cncc(CN6CCCCC6)c5)cc34)[nH]c2c1 [Compound 323, 3-(4-(Furan-3-yl)-1H-indol-2-yl)-5-(5-(piperidin-1-ylmethyl)pyridin-3-yl)-1H-pyrazolo[3,4-c]pyridine]		85	2770	
